Reference: ChEMBL document CHEMBL4831522, “Structure-Based Optimization of Quinazolines as Cruzain and TbrCATL Inhibitors” (J Med Chem, 2021)
Activity calls are given as the source filed them. The calls are words filed in the database; no cut-off is given here.

Legend:
[1] = biological target: Cruzipain (Trypanosoma cruzi) (UniProt P25779); assay: Inhibition of recombinant Trypanosoma cruzi cruzain at 100 uM using Z-FR-AMC as substrate by fluorometry relative to control
[2] = biological target: Cruzipain (Trypanosoma cruzi) (UniProt P25779); assay: Inhibition of recombinant Trypanosoma cruzi cruzain using Z-FR-AMC as substrate and compound-enzyme complex preincubated for 5 mins in presence of 0.01% Triton-X100 by fluorometry relative to control
[3] = Selectivity index, ratio of CC50 for cytotoxicity against mouse C2C12 cells to EC50 for trypanocidal activity against Trypanosoma cruzi […] infected in mouse C2C12 cells; format: toxicity, cell-based; details: read-out: Selectivity Index
[4] = biological target: Cruzipain (Trypanosoma cruzi) (UniProt P25779); assay: Inhibition of recombinant Trypanosoma cruzi cruzain using Z-FR-AMC as substrate and compound-enzyme complex preincubated for 5 mins in presence of 0.1% Triton-X100 by fluorometry relative to control
Cruzipain [5] = biological target: T1, Cruzipain (Trypanosoma cruzi, UniProt P25779); assay: Inhibition of recombinant Trypanosoma cruzi cruzain using Z-FR-AMC as substrate by fluorometry
[6] = biological target: Cruzipain (Trypanosoma cruzi) (UniProt P25779); assay: Inhibition of recombinant Trypanosoma cruzi cruzain using Z-FR-AMC as substrate when compound was preincubated for 5 mins in presence of BSA and 0.001% Triton-X100 followed by further incubation for 5 mins in presence of enzyme relative to control; details: time 10.0 min
[7] = test system: Trypanosoma brucei brucei; assay: Antitrypanosomal activity against Trypanosoma brucei brucei Lister 427 bloodstream forms measured after 72 hrs by SYBR green dye based assay; format: functional, organism-based; details: Lister 427, 72 h
Trypanosoma cruzi = assay: Trypanocidal activity against amastigotes form of Trypanosoma cruzi CA-I/72 infected in mouse C2C12 cells assessed as inhibition of parasite replication incubated for 48 hrs by DAPI staining based microscopic analysis; format: functional, organism-based; details: CA-I/72, C2C12, 48 h
Rhodesain = Rhodesain (Trypanosoma brucei rhodesiense, UniProt Q95PM0); assay: Inhibition of recombinant Trypanosoma brucei rhodesiense MVAT4 rhodesain expressed in Pichia pastoris using Z-FR-AMC as substrate by fluorometry
[8] = Cytotoxicity against mouse C2C12 cells; format: cell-based
[9] = biological target: Rhodesain (Trypanosoma brucei rhodesiense) (UniProt Q95PM0); assay: Inhibition of recombinant Trypanosoma brucei rhodesiense MVAT4 rhodesain expressed in Pichia pastoris at 100 uM using Z-FR-AMC as substrate by fluorometry relative to control
[10] = biological target: Cruzipain (Trypanosoma cruzi) (UniProt P25779); assay: Inhibition of recombinant Trypanosoma cruzi cruzain using Z-FR-AMC as substrate and compound-enzyme complex preincubated for 5 mins in presence of 0.001% Triton-X100 by fluorometry relative to control
[11] = biological target: Rhodesain (Trypanosoma brucei rhodesiense) (UniProt Q95PM0); assay: Time dependent inhibition of recombinant Trypanosoma brucei rhodesiense MVAT4 rhodesain expressed in Pichia pastoris at 100 uM using Z-FR-AMC as substrate by fluorometry; details: time 10.0 min
[12] = biological target: Cruzipain (Trypanosoma cruzi) (UniProt P25779); assay: Time dependent inhibition of recombinant Trypanosoma cruzi cruzain at 100 uM using Z-FR-AMC as substrate by fluorometry; details: time 10.0 min
[13] = biological target: Cruzipain (Trypanosoma cruzi) (UniProt P25779); assay: Inhibition of recombinant Trypanosoma cruzi cruzain at 100 uM using Z-FR-AMC as substrate preincubated for 10 mins followed by substrate addition by fluorometry relative to control
Cruzipain [14] = biological target: T1, Cruzipain; assay: Inhibition of recombinant Trypanosoma cruzi cruzain using Z-FR-AMC as substrate preincubated for 10 mins followed by substrate addition by fluorometry
Cruzipain [15] = biological target: T1, Cruzipain; assay: Competitive inhibition of Trypanosoma cruzi cruzain assessed as inhibition constant using varying levels of Z-FR-AMC as substrate by Michaelis-Menten analysis
[16] = biological target: Cruzipain (Trypanosoma cruzi) (UniProt P25779); assay: Competitive inhibition of Trypanosoma cruzi cruzain assessed as unchanged initial velocity up to 25 uM using varying levels of Z-FR-AMC as substrate by Michaelis-Menten analysis; details: dose microM <=25
[17] = biological target: Cruzipain (Trypanosoma cruzi) (UniProt P25779); assay: Competitive inhibition of Trypanosoma cruzi cruzain assessed as increase in apparent Kapp up to 25 uM using varying levels of Z-FR-AMC as substrate by Michaelis-Menten analysis; details: dose microM <=25
[18] = biological target: Rhodesain (Trypanosoma brucei rhodesiense) (UniProt Q95PM0); assay: Inhibition of recombinant Trypanosoma brucei rhodesiense MVAT4 rhodesain expressed in Pichia pastoris at 1 uM using Z-FR-AMC as substrate by fluorometry relative to control
[19] = biological target: Cruzipain (Trypanosoma cruzi) (UniProt P25779); assay: Inhibition of recombinant Trypanosoma cruzi cruzain at 20 uM using Z-FR-AMC as substrate by fluorometry relative to control
[20] = biological target: Rhodesain (Trypanosoma brucei rhodesiense) (UniProt Q95PM0); assay: Inhibition of recombinant Trypanosoma brucei rhodesiense MVAT4 rhodesain expressed in Pichia pastoris at 20 uM using Z-FR-AMC as substrate by fluorometry relative to control
[21] = biological target: Cruzipain (Trypanosoma cruzi) (UniProt P25779); assay: Inhibition of recombinant Trypanosoma cruzi cruzain at 50 uM using Z-FR-AMC as substrate preincubated for 10 mins followed by substrate addition by fluorometry relative to control
[22] = biological target: Rhodesain (Trypanosoma brucei rhodesiense) (UniProt Q95PM0); assay: Inhibition of recombinant Trypanosoma brucei rhodesiense MVAT4 rhodesain expressed in Pichia pastoris at 50 uM using Z-FR-AMC as substrate preincubated for 10 mins followed by substrate addition by fluorometry relative to control

T1 sequence (P25779 whole entry): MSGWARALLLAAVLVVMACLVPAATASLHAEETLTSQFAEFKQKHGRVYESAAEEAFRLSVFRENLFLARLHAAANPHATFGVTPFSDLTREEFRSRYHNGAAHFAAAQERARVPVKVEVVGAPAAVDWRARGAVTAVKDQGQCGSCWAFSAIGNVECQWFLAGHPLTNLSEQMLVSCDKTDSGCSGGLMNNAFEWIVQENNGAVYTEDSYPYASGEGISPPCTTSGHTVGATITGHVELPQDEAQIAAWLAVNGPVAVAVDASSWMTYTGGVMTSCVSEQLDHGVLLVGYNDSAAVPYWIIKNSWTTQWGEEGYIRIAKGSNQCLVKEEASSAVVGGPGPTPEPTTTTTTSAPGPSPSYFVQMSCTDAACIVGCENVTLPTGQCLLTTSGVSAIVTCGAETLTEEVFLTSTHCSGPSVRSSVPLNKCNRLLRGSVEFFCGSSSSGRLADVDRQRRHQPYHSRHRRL
Cruzipain (Trypanosoma cruzi), sequence (P25779 123-467 limits assumed): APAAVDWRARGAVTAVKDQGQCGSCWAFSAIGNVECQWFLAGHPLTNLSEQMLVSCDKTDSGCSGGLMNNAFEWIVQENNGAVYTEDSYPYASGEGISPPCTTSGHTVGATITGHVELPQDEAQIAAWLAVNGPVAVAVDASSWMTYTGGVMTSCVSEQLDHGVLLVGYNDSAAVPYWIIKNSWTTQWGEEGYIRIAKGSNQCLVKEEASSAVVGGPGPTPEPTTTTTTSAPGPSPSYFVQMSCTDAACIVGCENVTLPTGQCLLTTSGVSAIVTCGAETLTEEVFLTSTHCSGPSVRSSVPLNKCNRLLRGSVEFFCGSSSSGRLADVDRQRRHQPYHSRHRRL
Rhodesain, sequence (Q95PM0 whole entry): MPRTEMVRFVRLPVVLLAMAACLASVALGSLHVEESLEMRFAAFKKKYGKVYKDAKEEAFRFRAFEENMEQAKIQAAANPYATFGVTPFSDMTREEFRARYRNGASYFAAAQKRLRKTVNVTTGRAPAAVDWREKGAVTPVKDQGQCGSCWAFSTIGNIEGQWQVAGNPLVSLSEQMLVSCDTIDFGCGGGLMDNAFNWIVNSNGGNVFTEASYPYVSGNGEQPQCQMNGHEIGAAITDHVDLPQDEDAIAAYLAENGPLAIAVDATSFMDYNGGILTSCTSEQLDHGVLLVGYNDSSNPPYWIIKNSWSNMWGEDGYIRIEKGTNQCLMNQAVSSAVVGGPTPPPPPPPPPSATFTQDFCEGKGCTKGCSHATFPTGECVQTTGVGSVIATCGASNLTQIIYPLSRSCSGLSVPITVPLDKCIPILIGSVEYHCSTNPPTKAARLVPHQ
Rhodesain (Trypanosoma brucei rhodesiense), sequence (Q95PM0 1-450): as the sequence (Q95PM0 whole entry) above

SMILES	inhibition [1]	inhibition [2]	inhibition [4]	inhibition [6]	EC50 [7]	inhibition [9]	inhibition [10]	selectivity ratio [3]	IC50 (Cruzipain [5])	EC50 (Trypanosoma cruzi)	CC50 [8]	also measured
Oc1cccc(Nc2nc(NCc3ccccc3)c3ccccc3n2)c1	100%	54%	33%	44%	13.8 µM	98%	65%	> 11	18 µM	0.93 µM	10 µM	IC50 (Rhodesain): 26 µM
O=C(Cn1ccnc1[N+](=O)[O-])NCc1ccccc1 [BENZNIDAZOLE]								> 9		5.4 µM	> 50 µM	
c1ccc(CNc2nc(Nc3nccs3)nc3ccccc23)cc1	100%	60%	22%	53%	> 50 µM	100%	100%	> 2	16 µM	5.6 µM	> 10 µM	IC50 (Rhodesain): 12.5 µM
O=C(c1ccc(Nc2nc(NCc3ccccc3)c3ccccc3n2)cc1)N1CCOCC1	99%	53%	49%	46%	> 50 µM	7%	45%	> 12	7 µM	0.8 µM	> 10 µM	Ki (Cruzipain [15]): 3.2 µM; inhibition [16]: Active; inhibition [17]: Active; IC50 (Rhodesain): 22 µM
Oc1ccc(Nc2nc(NCc3ccccc3)c3ccccc3n2)cc1	100%	56%	40%	55%	> 50 µM	95%	81%	> 2	18 µM	5.9 µM	> 10 µM	IC50 (Rhodesain): 23 µM
OCCCNc1nc(NCCN2CCOCC2)c2ccccc2n1	67%				> 50 µM	22%		> 0.3		35 µM	> 10 µM	
CC(C)C[C@H](NC(=O)[C@@H]1O[C@H]1C(=O)O)C(=O)NCCCCN=C(N)N									0.028 µM			inhibition [18]: 87%; IC50 (Rhodesain): 0.0037 µM
c1ccc(CNc2nc(Nc3ccccc3)nc3ccccc23)cc1		50%		43%	17.5 µM	77%		> 211	8 µM	0.047 µM	> 10 µM	Ki (Cruzipain [15]): 1.7 µM; inhibition [16]: Active; inhibition [17]: Active; IC50 (Rhodesain): 17.5 µM
Clc1ccc(Nc2nc(NCc3ccccc3)c3ccccc3n2)cc1		48%	1%	35%	93 µM		42%	21	2.4 µM	0.5 µM	10 µM	inhibition [19]: 78%; IC50 (Rhodesain): 33 µM
Clc1ccc(Nc2nccc(NCc3ccccc3)n2)cc1					25 µM	10%		> 1		7 µM	> 10 µM	inhibition [19]: 34%; inhibition [20]: 10%
Fc1cccc(Nc2nc(Nc3ccccc3)nc3ccccc23)c1	46%				9 µM	17%		> 150		0.07 µM	> 10 µM	

Further lines, with some results ahead:

inhibition [1]	inhibition [2]	inhibition [4]	inhibition [6]	EC50 [7]	inhibition [9]	inhibition [10]	SMILES	selectivity ratio [3]	IC50 (Cruzipain [5])	EC50 (Trypanosoma cruzi)	CC50 [8]	also measured
89%	67%	64%	57%	17.8 µM	56%	58%	OCCCNc1nc(Nc2cccc(F)c2)c2ccccc2n1	> 109	25 µM	0.09 µM	> 10 µM	
84%				2.7 µM	29%		O=C(Nc1ccccc1)c1ccc(Nc2nc(NCCN3CCOCC3)c3ccccc3n2)cc1	> 12		0.8 µM	> 10 µM	
85%	63%	73%	42%	> 50 µM	36%	49%	O=C(c1ccc(Nc2nc(NCCN3CCOCC3)c3ccccc3n2)cc1)N1CCOCC1	> 1	13.5 µM	15 µM	> 10 µM	
	50%	31%	65%	15.1 µM		83%	COc1ccc(Nc2nc(NCc3ccccc3)c3ccccc3n2)cc1	18		0.5 µM	9 µM	TDI [11]: Active; TDI [12]: Active; inhibition [13]: 58%; IC50 (Cruzipain [14]): 52 µM
	54%	4%	8%	> 50 µM		100%	O=C(Nc1ccccc1)c1ccc(Nc2nc(NCc3ccccc3)c3ccccc3n2)cc1	> 6		1.8 µM	> 10 µM	
100%				> 50 µM	10%		c1ccc(CNc2nc(Nc3ccccn3)nc3ccccc23)cc1	> 4		2.7 µM	> 10 µM	
90%	53%	69%	51%	> 50 µM	62%	53%	O=C(c1ccc(Nc2nc(NCCCO)c3ccccc3n2)cc1)N1CCOCC1	> 0.5	15 µM	22 µM	> 10 µM	
100%	31%	33%	30%	> 50 µM	47%	25%	OCCCNc1nc(NCc2ccccc2)c2ccccc2n1	> 193	22 µM	0.5 µM	> 10 µM	
				23.8 µM	11%		Cn1cnc2c(NCc3ccccc3)nc(Nc3ccccc3)nc21	> 5		2.2 µM	> 10 µM	
				0.026 µM			N=C(N)c1ccc(OCCCCCOc2ccc(C(=N)N)cc2)cc1 [PENTAMIDINE]					
87%	36%	35%	35%	9 µM	63%	47%	OCCCNc1nc(Nc2ccc(Cl)cc2)nc2ccccc12	> 40	7.3 µM	0.25 µM	> 10 µM	
	84%	81%	62%	16.3 µM		71%	c1ccc(Nc2nc(Nc3ccccc3)c3ccccc3n2)cc1	> 11		0.9 µM	> 10 µM	inhibition [21]: 30%; inhibition [22]: 14%; IC50 (Cruzipain [14]): 14 µM
				18.4 µM	5%		Cn1cnc2c(NCc3ccccc3)nc(Nc3ccc(Cl)cc3)nc21	> 1		12 µM	> 10 µM	
				> 50 µM	6%		c1ccc(CNc2ccnc(Nc3ccccc3)n2)cc1	> 1		7 µM	> 10 µM	
95%	67%	80%	62%	23.6 µM	48%	75%	Clc1ccc(Nc2nc(NCCN3CCOCC3)c3ccccc3n2)cc1	> 27	2.5 µM	370 µM	> 10 µM	
